In US20230009366A1, “Using Alternating Electric Fields at Different Frequencies to Increase Permeability of the Blood Brain Barrier and also to Provide Other Benefits” (Novocure GmbH, priority 2021, published 2023):
One block for each compound: values may come before it.

Legend:
[1] = tested on: BBB of rat brain; test: DCE-MRI of gadolinium contrast agent accumulation in rat brain; type: in vivo; conditions: for contrast agent accumulation in the brain tissue after recovery: 100 kHz fields 72 h followed by 96 h without fields
Description: Yet another set of in vivo experiments was performed using Dynamic Contrast Enhanced MRI (DCE-MRI) with intravenous injection of Gadolinium contrast agent (Gd-DTPA, Magnetol, MW 547). In these experiments, test rats were treated with 100 kHz alternating electric fields for 72 h, and control rats were not treated with alternating electric fields for the same period of time. After this 72 h period, the alternating electric field was turned off, the rats were anesthetized, and a series of 60 Tlw MRI scans (each of the scans having a duration of 28 seconds) was acquired. The gadolinium contrast agent was injected into the rat's tail vein during the 7th of these 60 scans.
The image analysis for each rat included (1) determining a baseline for each voxel by calculating the mean of the first six Tlw MRI scans for each voxel (i.e., the scans prior to the injection of the gadolinium); (2) computing voxel by voxel, the percent signal change (i.e., gadolinium accumulation) over time relative to the baseline; (3) segmenting the brain into anterior, middle, and posterior segments; (4) generating for each of the three segments the mean percent signal change with respect to the baseline over all the voxels in the respective segment and then (5) averaging 4 consecutive time points (i.e. 4 scans) together. Finally, the data from all of the rats within any given group were averaged together.
To test whether this increase in permeability of the BBB was temporary, the same test conditions were repeated, but followed with an additional 96 hours without alternating electric fields. After this 96 hour period, a series of 60 Tlw MM scans (each of the scans having a duration of 28 seconds) was acquired using the same procedure described above (including the gadolinium injection). The results of this portion of the DCE-MM experiment for each of the three segments of the brain are also depicted in FIG. 8. […] From this we can conclude that the permeability of the BBB returns to normal after the alternating electric fields are discontinued.
The relationship between the intensity of the alternating electric fields and the impact of those fields on BBB integrity and permeability was also apparent from in vivo experiments in rats using serial dynamic contrast-enhanced (DCE) MM to measure gadolinium (Gd) uptake after 100 kHz alternating electric fields were applied for 72 hours. The rat's brains were segmented into three regions (anterior, posterior, and middle), and simulations of the alternating electric fields delivery to those three regions yielded field strengths of 1.5±0.6 V/cm RMS, 2.1±1.2 V/cm RMS, and 2.7±1.7 V/cm RMS respectively. […] These findings also indicate that the cells' response to alternating electric fields depends on the intensity of the fields.

[2] = tested on: human glioblastoma cells; test: Bioluminescence substrate permeation in luciferase-expressing glioblastoma cells; type: cell-based; conditions: TTFields exposure
[3] = tested on: U87-MG/eGFP-fLuc cells; test: Reversibility of TTFields-induced uptake; type: cell-based, human; conditions: TTFields 24 h vs none vs TTFields 24 h followed by no TTFields 24 h
Description: To assess the reversibility of the effect of TTFields on cancer cells, U87-MG/eGFP-fLuc cells were subjected to three conditions: (1) No TTFields exposure, standard cell culture conditions (37° C., […], 5% CO2), (2) TTFields exposure for 24 h and (3) TTFields exposure for 24 h followed by no TTFields exposure for 24 h. The readouts of BLI, PpIX fluorescence (5-ALA product) and Dextran-FITC (4 kDa) fluorescence were acquired. All experimental conditions were done in triplicate. […] Here, NS=not significant; BLI=bioluminescent imaging; eGFP=enhanced green fluorescence protein; fLuc=firefly luciferase; 5-ALA=5 aminolevulinic acid; FITC=fluorescein isothiocyanate; PpIX=protoporphyrin IX; and FL=fluorescence.
In vitro tumor treating field apparatus: The coverslips were transferred to a ceramic dish of the Inovitro™ system, which in turn was mounted onto Inovitro™ base plates (Novocure Ltd., Haifa, Israel). Tumor treating fields at 200 kHz (1-4 V/cm) were applied through an Inovitro™ power generator. Incubator ambient temperatures spanned 20-27° C. with a target temperature of 37° C. in the ceramic dishes upon application of the TTFields. Duration of TTFields exposure lasted anywhere from 0.5 to 72 h, after which coverslips were removed and processed for the appropriate bioassays (see below). […]

[4] = tested on: GBM39/Luc cells; test: Drug sensitivity / synergy with TTFields; type: cell-based, human
[5] = tested on: BBB of rat brain; test: Evans Blue accumulation in rat brain after alternating electric fields; type: in vivo; conditions: 100 kHz fields 72 h vs sham heat/control
Description: A set of in vivo experiments on rats was also run to quantify the increase in vessel permeability caused by exposure to the alternating electric fields. These experiments used Evans Blue (EB) dye, which is an azo dye that has a very high affinity for serum albumin (molecule size ˜69 kDa). Because of its large molecule size, serum albumin will ordinarily not be able to get past the BBB.
This was accomplished by shaving each rat's head, positioning a first pair of capacitively coupled electrodes on the top and bottom of the rat's head, and positioning a second pair of capacitively coupled electrodes on the left and right sides of the rat's head. A 100 kHz AC voltage was then applied between the top and bottom electrodes for 1 second, followed by a 100 kHz AC voltage applied between the right and left electrodes for 1 second, in a repeating sequence.
Under the conditions indicated in Table 1 and for the times indicated on Table 1, EB was injected intravenously into the tail vein under anesthesia (Once injected, EB immediately binds to Albumin), and the EB was allowed to circulate for 2 hours in all cases. The following steps were then performed: (a) intracardiac perfusion with saline; (b) brains are sliced in four pieces with a brain slicer; (c) pieces were photographed to localize staining and weighted; (d) EB extraction after tissue homogenization with TCA 50% (1:3) and centrifuge and (e) EB quantification at 610 nm. Results are given as μg EB per g tissue.
During the experiment, two animals from group 2 and one animal from group 4 were excluded (disrupted treatment, failure to inject EB into the tail vein). There were no differences between the animals treated with alternating electric fields (groups 1 and 2) and therefore these animals were grouped together. Similarly, there were no differences between sham heat and control animals (groups 3 and 4) and therefore these animals were grouped together.
EB accumulation in these four specific sections was then measured. In addition, a computer simulation was performed to determine the field strength in each of these four sections. […]

[6] = tested on: GBM F98 cells; test: Paclitaxel plus alternating electric fields in orthotopic glioblastoma rats; type: in vivo, rat
Description: Another set of in vivo experiments was performed to determine whether paclitaxel (PTX, which is a drug that ordinarily cannot traverse the BBB) can make it across the BBB when the subject is treated with alternating electric fields. In one of these experiments, glioblastoma was induced in rats by injecting them orthotopically with GBM F98 cells on day 0 of the experiment. On day 6, a first set of MRI scans of each rat's brains was obtained. Alternating electric fields at 100 kHz were applied to all the rats on days 7 through 10. On day 10 (i.e., after applying the fields for 72 hours), some of the rats were injected i.p. with 25 mg/kg PTX, while other rats were not injected. Subsequently, on day 13 (i.e., 3 days post PTX administration), a second set of MRI scans of each rat's brain was obtained. Ki67 (red) and DAPI (blue) staining was evaluated for the test and control rats.
A similar experiment using a 15 mg/kg dose of PTX was performed, except that instead of quantifying the Ki67/DAPI ratio on day 13, Mill scans and post mortem tissue sections were used to determine the fold increase of the tumor volume on day 15. The tumor volumes from these experiments are depicted in FIG. 11. […] And the inventors have concluded that the alternating electric fields allow the PTX (or metabolites thereof) to cross the BBB.

[7] = molecular target: T1, firefly luciferase (Photinus pyralis, UniProt P08659); test: Activity of purified firefly luciferase under TTFields; type: biochemical
T1 construct: purchased Sigma Aldrich Inc (St. Louis, Mo.) SRE0045-2MG
Description: U87-MG/eGFP-fLuc cells were seeded on Thermanox glass coverslips, allowed to settle and grow, and then subjected to either TTFields or no TTFields. […] This increase in BLI occurred as early as 30 minutes after commencement of TTFields and continued to 24 h of TTFields exposure. […] Without being bound by this theory, it is believed that the elevation in bioluminescence was not due to a direct effect of TTFields on firefly luciferase activity because exposure of purified firefly luciferase to 200 kHz TTFields led to over a 1000-fold loss in enzymatic activity 60 minutes after initiation of TTFields.
FIG. 16B depicts the effect of TTFields on eGFP fluorescence in U87-MG/eGFP-fLuc cells observed from time course of representative images (not shown) for TTFields-exposed vs. TTFields-unexposed U87-MG/eGFP-fLuc. […] More specifically, FIG. 16C depicts the effect of TTFields on the fLuc bioluminescence (fLuc-BLI) over eGFP fluorescence (eGFP-FL) ratio for U87-MG/eGFP-fLuc cells as a function of length of TTFields exposure; and FIG. 16D depicts the effect of TTFields exposure vs. non-exposure on the fLuc-BLI/eGFP-FL ratio as a function of TTFields exposure time (hours).

T1 sequence (P08659 whole entry): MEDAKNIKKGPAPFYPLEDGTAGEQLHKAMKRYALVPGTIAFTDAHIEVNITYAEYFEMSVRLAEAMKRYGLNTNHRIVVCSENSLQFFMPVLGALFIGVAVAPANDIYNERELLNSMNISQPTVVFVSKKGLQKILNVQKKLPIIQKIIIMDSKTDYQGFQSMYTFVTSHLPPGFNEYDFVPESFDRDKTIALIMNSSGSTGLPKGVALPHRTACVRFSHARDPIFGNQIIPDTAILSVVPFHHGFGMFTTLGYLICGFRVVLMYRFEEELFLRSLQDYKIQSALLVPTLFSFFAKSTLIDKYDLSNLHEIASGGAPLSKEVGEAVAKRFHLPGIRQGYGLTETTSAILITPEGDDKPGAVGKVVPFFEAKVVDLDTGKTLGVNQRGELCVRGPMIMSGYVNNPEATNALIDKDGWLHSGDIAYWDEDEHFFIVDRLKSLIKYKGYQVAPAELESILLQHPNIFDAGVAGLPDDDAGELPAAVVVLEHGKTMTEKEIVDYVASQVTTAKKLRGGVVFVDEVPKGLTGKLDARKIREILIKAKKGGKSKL

Compound: O=C([O-])CN(CCN(CC(=O)[O-])CC(=O)O)CCN(CC(=O)[O-])CC(=O)O.[Gd+3] [Gd-DTPA]
Gd accumulation in the anterior part of the brain ([1]; 100 kHz fields 72 h): no significant Gd accumulation
signal enhancement in the middle and posterior brains ([1]; 100 kHz fields 72 h, about 10 minutes after Gd injection, vs control rats): significantly increased signal enhancement
contrast agent accumulation in the brain tissue after recovery ([1]; listed as Gd): no significant accumulation
contrast agent accumulation in the brain tissue after recovery ([1]; listed as contrast agent): not significantly different
contrast agent accumulation in the brain tissue ([1]; 100 kHz fields 72 h vs control rats): significantly higher
spatial distribution of Gd enhancement ([1]; test rats, 20 to 23 minutes post-contrast administration): distributed in the whole brain

Compound: Oc1ccc(Cc2nc3c(Cc4ccccc4)nc(-c4ccc(O)cc4)cn3c2O)cc1 [coelenterazine]
permeation of luciferase substrate through the plasma membrane [2]: increased permeation

Compound: O=C(O)[C@H]1CSC(c2nc3ccc(O)cc3s2)=N1 [D-luciferin]
permeation of luciferase substrate through the plasma membrane [2]: increased permeation
reversibility of increased uptake [3]: reversibly increase uptake

Compound: CCc1c2c(nc3ccc(OC(=O)N4CCC(N5CCCCC5)CC4)cc13)-c1cc3c(c(=O)n1C2)COC(=O)[C@]3(O)CC [Irinotecan]
synergy of TTFields plus drug [4]: synergy was found
sensitivity of cells to drug ([4]; TTFields for 3 days vs no TTFields): improves the sensitivity

EB accumulation in sections 1, 2 (frontal cerebrum) ([5]; EB i.v., 2 h circulation): statistically significant increase
average EB accumulation in the rat brain, averaged over all four sections ([5]; p<0.05): higher accumulation
Compound: Cc1cc(-c2ccc(/N=N/c3ccc4c(S(=O)(=O)O)cc(S(=O)(=O)O)c(N)c4c3O)c(C)c2)ccc1/N=N/c1ccc2c(S(=O)(=O)O)cc(S(=O)(=O)O)c(N)c2c1O [EB, Evans Blue]
EB accumulation in posterior sections (3, 4) ([5]; EB i.v., 2 h circulation): smaller increase (that was not statistically significant)

Compound: CC(=O)O[C@H]1C(=O)[C@@]2(C)[C@H]([C@H](OC(=O)c3ccccc3)[C@]3(O)C[C@H](OC(=O)[C@H](O)[C@@H](NC(=O)c4ccccc4)c4ccccc4)C(C)=C1C3(C)C)[C@]1(OC(C)=O)CO[C@@H]1C[C@@H]2O [PTX, paclitaxel]
fold increase of the tumor volume ([6]; 15 mg/kg PTX + 100 kHz fields vs heat only, heat+PTX, fields only, day 15): significant decrease in the fold tumor volume increase
Ki67/DAPI ratio (cell proliferation in the GBM tumor) ([6]; 25 mg/kg PTX i.p. after 72 h 100 kHz fields vs fields only, day 13): significant decrease in cell proliferation

Compound: firefly luciferase: purified firefly luciferase enzyme
loss in enzymatic activity ([7]; 200 kHz TTFields, 60 minutes after initiation): > 1000 fold
activity of purified firefly luciferase ([7]; TTFields vs no TTFields, p<0.01): significantly decreased activity
